Patent US12503453B2, “USP7 inhibition” (Dana-Farber Cancer Institute, Inc., priority 2018, dated 2025)
Where two headings read alike, the source gives them in different places.

Experiments:
[1] = test system: TC71 cells; assay: Cell proliferation (CellTiter-Glo), TC71; assay type: cell-based; conditions: TP53-mutant, 3 days
Experimental: (§1) Cells were plated in 384-well culture-treated plates and allowed to settle overnight. After drug treatment and appropriate incubation time, cell viability was assessed using the CellTiter-Glo Luminescent Cell Viability Assay (Promega). Luminescence was read on a Fluostar Omega Reader (BMG Labtech).

[2] = target: USP7-Q351S (Homo sapiens (Human), UniProt Q93009, Q351S); assay: Ub-AMC assay with mutant USP7-Q351S; assay type: biochemical; conditions: 6-hr pre-incubation
Sequence of USP7-Q351S (Q93009 whole entry Q351S): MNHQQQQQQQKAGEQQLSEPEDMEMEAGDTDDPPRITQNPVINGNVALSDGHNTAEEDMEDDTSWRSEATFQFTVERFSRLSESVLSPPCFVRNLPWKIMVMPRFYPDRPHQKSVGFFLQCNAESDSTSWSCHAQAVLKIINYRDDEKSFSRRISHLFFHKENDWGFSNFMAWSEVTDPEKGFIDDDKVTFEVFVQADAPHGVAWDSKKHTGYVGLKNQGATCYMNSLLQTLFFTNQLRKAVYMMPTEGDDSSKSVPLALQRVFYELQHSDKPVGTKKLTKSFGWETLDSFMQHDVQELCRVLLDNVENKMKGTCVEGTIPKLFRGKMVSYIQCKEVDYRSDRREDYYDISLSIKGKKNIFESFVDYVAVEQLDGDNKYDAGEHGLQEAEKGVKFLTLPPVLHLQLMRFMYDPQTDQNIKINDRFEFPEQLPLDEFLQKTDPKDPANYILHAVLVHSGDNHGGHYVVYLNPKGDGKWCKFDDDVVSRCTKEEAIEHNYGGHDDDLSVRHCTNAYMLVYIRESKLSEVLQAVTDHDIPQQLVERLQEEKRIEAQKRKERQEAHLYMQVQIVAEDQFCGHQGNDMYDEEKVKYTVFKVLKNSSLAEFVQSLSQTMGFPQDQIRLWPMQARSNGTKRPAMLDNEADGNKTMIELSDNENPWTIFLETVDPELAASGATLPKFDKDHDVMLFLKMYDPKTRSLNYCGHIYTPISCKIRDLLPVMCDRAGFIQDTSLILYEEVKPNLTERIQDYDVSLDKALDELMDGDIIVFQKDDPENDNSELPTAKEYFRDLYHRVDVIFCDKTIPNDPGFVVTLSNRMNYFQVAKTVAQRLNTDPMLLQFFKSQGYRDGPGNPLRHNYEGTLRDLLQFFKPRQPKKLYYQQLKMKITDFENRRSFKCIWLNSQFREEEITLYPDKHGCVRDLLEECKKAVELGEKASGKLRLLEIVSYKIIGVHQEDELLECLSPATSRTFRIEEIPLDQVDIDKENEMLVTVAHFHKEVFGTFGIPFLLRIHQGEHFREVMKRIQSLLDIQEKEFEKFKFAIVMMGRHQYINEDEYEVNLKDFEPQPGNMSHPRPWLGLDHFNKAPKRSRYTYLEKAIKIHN
Experimental: (§2) Full length USP7 was tested for its activity in Ubiquitin-AMC assay in presence or absence of inhibitors. USP7 (5 nM) was pre-incubated for 6 hours at room temperature with different concentrations of inhibitors or DMSO as a control in 50 mM HEPES pH 7.5, 0.5 mM EDTA, 11 μM ovalbumin, and 5 mM DTT. Ubiquitin-AMC (Boston Biochem) was then added to a final concentration of 500 nM. The initial rate of the reaction was measured by collecting fluorescence data at one minute intervals over 30-minute period using a Clariostar fluorescence plate reader at excitation and emission wavelength of 345 and 445 nm respectively. The calculated initial rate values were plotted against inhibitor concentrations to determine IC50s. All the experimental data were plotted using Prism GraphPad. All assays for each compound were performed at least twice for each compound.

[3] = target: USP7 catalytic domain (Homo sapiens (Human), UniProt Q93009); assay: MS labeling of purified USP7 catalytic domain (intact MS, CE-MS); assay type: binding
Sequence of USP7 catalytic domain (Q93009 208-560): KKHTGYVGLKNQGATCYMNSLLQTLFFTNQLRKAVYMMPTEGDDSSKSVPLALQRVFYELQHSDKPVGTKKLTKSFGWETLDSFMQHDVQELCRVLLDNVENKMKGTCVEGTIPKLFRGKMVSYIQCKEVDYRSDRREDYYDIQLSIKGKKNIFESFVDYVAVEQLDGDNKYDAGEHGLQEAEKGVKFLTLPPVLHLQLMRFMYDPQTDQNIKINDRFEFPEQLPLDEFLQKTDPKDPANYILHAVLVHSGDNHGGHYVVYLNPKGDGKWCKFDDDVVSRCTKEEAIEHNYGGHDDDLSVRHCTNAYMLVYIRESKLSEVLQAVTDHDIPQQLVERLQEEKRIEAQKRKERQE
Experimental: Purified USP7 catalytic domain was diluted to 20 μM in 10 μL labeling buffer (20 mM HEPES pH 7.5, 150 mM NaCl, 1 mM TCEP) and incubated for the indicated times with 50 μM (2.5×) compound. After incubation, samples were flash frozen in liquid nitrogen and stored at −80° C. until analysis.
Intact mass analysis was performed by injecting 5 μg USP7 catalytic domain onto a self-packed reversed phase column ( 1/32″ O.D.×500 um I.D., 5 cm of POROS 10R2 resin). After desalting, protein was eluted with an HPLC gradient (0-100% B in 4 minutes, A=0.2M acetic acid in water, B=0.2 M acetic acid in acetonitrile, flow rate ˜30 μL/min) into an LTQ ion trap mass spectrometer (ThermoFisher Scientific, San Jose, CA). Mass spectra were deconvoluted using MagTran1.03b2 software. Zhang, Z. & Marshall, A. G. A universal algorithm for fast and automated charge state deconvolution of electrospray mass-to-charge ratio spectra. J. Am. Soc. Mass Spectrom. 9, 225-233 (1998).
To identify sites of covalent modification, treated protein was reduced (10 mM dithiothreitol), alkylated (22.5 mM iodoacetamide), and digested with trypsin overnight at 37° C. Peptides were desalted using SP3 (Hughes, C. S. et al. Ultrasensitive proteome analysis using paramagnetic bead technology. Mol. Syst. Biol. 10, 757-757 (2014)), dried by vacuum centrifugation, and reconstituted in 1% formic acid/50% acetonitrile with 100 mM ammonium acetate. Peptides were then analyzed by CE-MS using a ZipChip CE system and autosampler (908 Devices, Boston, MA) interfaced to a QExactive HF mass spectrometer (ThermoFisher Scientific, San Jose, CA). Peptide solution was loaded for 30 seconds, and the mass spectrometer was operated in data dependent mode and subjected the 5 most abundant ions in each MS scan (60 k resolution, 3E6 target, lock mass enabled) to MS/MS (15 k resolution, 1E5 target, 100 ms max inject time). Dynamic exclusion was enabled with a repeat count of 1 and an exclusion time of 6 seconds. […]

[4] = target: USP7-F291N (Homo sapiens (Human), UniProt Q93009, F291N); assay: Ub-AMC assay with mutant USP7-F291N; assay type: biochemical; conditions: 6-hr pre-incubation
Sequence of USP7-F291N (Q93009 whole entry F291N): as the sequence (Q93009 whole entry Q351S) above, with F291N, S351Q counted along it
Experimental: as §2

[5] = target: USP7 (Homo sapiens (Human), UniProt Q93009); assay: Competitive ABPP with HA-Ub-VS in MCF7 crude cell extracts; assay type: binding; conditions: read-out: IC50 of inhibition of HA-Ub-VS labeling
Sequence of USP7 (Q93009 whole entry): as the sequence (Q93009 whole entry Q351S) above, with S351Q counted along it
Experimental: HA-Ub-VS experiments were performed as previously described in Lamberto, I. et al. Structure-Guided Development of a Potent and […] Selective Non-covalent Active-Site Inhibitor of USP7. Cell Chem. Biol. 24, 1490-1500 (2017). Briefly, target engagement lysis buffer (50 mM Tris pH 8.0, 150 mM NaCl, 5 mM MgCl2, 0.5 mM EDTA, 0.5% NP-40, 10% glycerol, 1 mM TCEP, protease and phosphatase inhibitors) was added to cell pellets on ice. Lysate was cleared by centrifugation and diluted to 1.67 mg/mL. Where indicated, 30 μL lysate was then incubated with inhibitors or DMSO for the indicated timepoints. 1 μM HA-Ub-VS was then added to the lysate and incubated at RT for the indicated time points. Labeling reactions were quenched with 4×LDS sample buffer (Thermo Fisher B0007) supplemented with 10% BME, vortexed vigorously, and heated to 95° C. for 5 minutes. Samples were resolved by SDS-PAGE and analyzed by Western blot with the indicated antibodies.

[6] = test system: A673 cells; assay: Cell proliferation (CellTiter-Glo), A673; assay type: cell-based; conditions: TP53-mutant, 3 days
Experimental: as §1

[7] = test system: TC32 cells; assay: Cell proliferation (CellTiter-Glo), TC32; assay type: cell-based; conditions: TP53 wild-type, 3 days
Experimental: as §1

[8] = test system: MCF7 cells; assay: Transcriptome profiling, 3' Digital Gene Expression RNA-seq; assay type: cell-based; conditions: 24 hours, low or high doses
From the text: Overall, transcripts were detected for 7000-10,000 genes (7276 genes detected across all conditions).
The same report had also identified a set of dimerization partner, Retinoblastoma-like, E2F and multi-vulval class B (DREAM) complex target genes by combining p53 repression data (generated in part with Nutlin-3A-treated MCF7 cells) with cell cycle expression and DREAM component binding.

[9] = test system: MCF7 cells; assay: Cell cycle analysis by propidium iodide staining; assay type: cell-based; conditions: 1 μM, 24 hours
Experimental: For propidium iodide (PI) staining, treated cells (˜1 million per condition) were washed with cold PBS, then fixed in 80% ethanol overnight at −20° C. After fixing, cells were pelleted, washed with PBS, and reconstituted in 500 μL FxCycle PI/RNAse A staining solution (Thermo Fisher). Cells were stored overnight at 4° C. and analyzed using a BD Fortessa flow cytometer.

- loss in potency compared to wild-type enzyme [2]: 100 fold
- site of covalent modification (MS/MS) [3]: binding to the catalytic residue, C223
- labeling of USP7 catalytic domain by MS ([3]; 15 minutes incubation): Quantitative labeling of USP7
- loss in potency compared to wild-type enzyme [4]: 100 fold
- IC50 ([5]; 30 min preincubation): 85 nM
- IC50 ([5]; 4 hr preincubation): 8 nM
Structure (SMILES): CN1CCN(CCC(=O)Nc2ccc3c(=O)n(CC4(O)CCN(C(=O)[C@@H](CCCNC(=O)c5ccc6c(Cl)c7c(nc6c5)CCCC7)Cc5ccccc5)CC4)cnc3c2)CC1 [compound 6, (S)—N-(4-benzyl-5-(4-hydroxy-4-((7-(3-(4-methylpiperazin-1-yl)propanamido)-4-oxoquinazolin-3(4H)-yl)methyl)piperidin-1-yl)-5-oxopentyl)-9-chloro-5,6,7,8-tetrahydroacridine-3-carboxamide]
- growth inhibition [1]: neither TP53-mutant A673 or TC71 was substantially inhibited
- growth inhibition [6]: neither TP53-mutant A673 or TC71 was substantially inhibited
- growth inhibition [7]: potently inhibited
- transcriptional profile [8]: strongly correlated transcriptional profiles
- cell cycle effect [9]: complete G1 arrest
